From patent US8030336B2, “Nicotinamide-based kinase inhibitors” (YM Biosciences Australia Pty Ltd, priority 2002, dated 2011) come the findings set out here.

Assay type in all cases: biochemical
The target in test [1] is T1, fms (Homo sapiens, UniProt P07333).
T1 sequence (P07333 582-910 limits assumed): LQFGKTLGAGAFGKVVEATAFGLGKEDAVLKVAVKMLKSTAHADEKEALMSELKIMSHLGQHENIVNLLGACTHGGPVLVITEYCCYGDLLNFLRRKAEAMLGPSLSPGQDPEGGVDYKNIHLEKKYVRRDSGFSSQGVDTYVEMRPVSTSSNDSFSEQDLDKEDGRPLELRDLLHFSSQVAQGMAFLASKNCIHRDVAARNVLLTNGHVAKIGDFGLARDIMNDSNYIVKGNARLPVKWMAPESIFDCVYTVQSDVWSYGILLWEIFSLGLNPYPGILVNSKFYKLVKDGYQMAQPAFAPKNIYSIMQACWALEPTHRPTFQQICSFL
Put plainly: fms kinase assay (ELISA or Alphascreen). The settings on record: read-out: fms inhibition of enzyme activity. The procedure, abridged: (§1)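 Affinity-purified PTK domain (~1.5 μg) phosphorylated biotinylated peptide (5 μM final) in 50 mM HEPES pH 7.5, 10 mM MgCl2, 150 mM NaCl, 10 μM-1 mM ATP. Phosphotyrosine read by PY20 ELISA or Alphascreen.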
In general terms: In an ELISA, binding on a coated surface is turned into a signal by an enzyme label.

The target in test [2] is fes (Homo sapiens, UniProt P07332). Put plainly: fes kinase assay (ELISA or Alphascreen). Conditions: read-out: fes inhibition of enzyme activity. Put shortly:
as §1

The target in test [3] is T2, abl (Homo sapiens, UniProt P00519).
T2 sequence (P00519 242-493 limits assumed): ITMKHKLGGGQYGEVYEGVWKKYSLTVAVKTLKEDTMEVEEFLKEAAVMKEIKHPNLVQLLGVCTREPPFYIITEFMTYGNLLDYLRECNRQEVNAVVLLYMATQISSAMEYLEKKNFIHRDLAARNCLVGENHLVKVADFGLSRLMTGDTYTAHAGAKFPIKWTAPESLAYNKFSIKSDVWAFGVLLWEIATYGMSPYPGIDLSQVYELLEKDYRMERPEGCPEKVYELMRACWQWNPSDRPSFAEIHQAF
Description: abl kinase assay (ELISA or Alphascreen). Conditions: read-out: abl inhibition of enzyme activity. Put shortly:
as §1

The target in test [4] is T3, human JAK3 (Homo sapiens, UniProt P52333).
T3 construct: The kinase domain of human JAK3 was amplified from U937mRNA; His tag (from the pFastBac HTb vector) (N); made in house; host or cells: baculovirus; Sf9 for virus, High Five insect cells for production
Description: JAK3 kinase assay (ELISA or Alphascreen). The settings on record: read-out: Jak3 inhibition of enzyme activity. Put shortly: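 His-tagged human JAK3 kinase domain from High Five cells, ~1.5 μg per assay, in 50 mM HEPES pH 7.5, 10 mM MgCl2, 150 mM NaCl, 10 μM-1 mM ATP, 5 μM biotinylated peptide substrate. Phosphotyrosine by PY20 ELISA or Alphascreen.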

Test [5] deals with T4, human JAK2 (Homo sapiens, UniProt O60674).
T4 construct: The kinase domain of human JAK2 was amplified from U937mRNA; His tag (from the pFastBac HTc vector) (N); made in house; host or cells: baculovirus; Sf9 for virus, High Five insect cells for production
Put plainly: JAK2 kinase assay (ELISA or Alphascreen). Conditions: read-out: Jak2 inhibition of enzyme activity. Put shortly: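 His-tagged human JAK2 kinase domain from baculovirus-infected insect cells, ~1.5 μg per assay, in 50 mM HEPES pH 7.5, 10 mM MgCl2, 150 mM NaCl, with 10 μM–1 mM ATP and 5 μM biotinylated peptide substrate. Phosphotyrosine detected by PY20 ELISA or AlphaScreen.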

Test [6] has as its target T5, Zap70 (Homo sapiens, UniProt P43403).
T5 sequence (P43403 338-600 limits assumed): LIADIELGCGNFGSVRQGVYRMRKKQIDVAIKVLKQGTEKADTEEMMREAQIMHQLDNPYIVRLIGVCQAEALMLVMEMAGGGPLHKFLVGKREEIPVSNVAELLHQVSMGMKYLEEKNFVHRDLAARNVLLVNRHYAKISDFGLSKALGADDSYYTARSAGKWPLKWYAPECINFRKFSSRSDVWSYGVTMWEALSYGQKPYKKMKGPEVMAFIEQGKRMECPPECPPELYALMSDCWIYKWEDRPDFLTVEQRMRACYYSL
Put plainly: Zap70 kinase assay (ELISA or Alphascreen). Conditions: read-out: Zap70 inhibition of enzyme activity. Put shortly:
as §1

The target of test [7] is hck (Homo sapiens, UniProt P08631). Description: hck kinase assay (ELISA or Alphascreen). Conditions: read-out: hck inhibition of enzyme activity. The procedure, abridged: as §1
hck, sequence (P08631 262-515 limits assumed, species assumed): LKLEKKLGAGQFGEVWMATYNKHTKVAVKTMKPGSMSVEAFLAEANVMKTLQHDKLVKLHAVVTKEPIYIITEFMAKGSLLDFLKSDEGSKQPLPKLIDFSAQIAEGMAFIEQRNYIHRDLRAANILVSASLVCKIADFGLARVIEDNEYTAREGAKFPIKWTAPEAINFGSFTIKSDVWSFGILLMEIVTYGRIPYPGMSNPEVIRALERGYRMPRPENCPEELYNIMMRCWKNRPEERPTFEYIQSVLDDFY

T4 sequence (O60674 849-1124 limits assumed): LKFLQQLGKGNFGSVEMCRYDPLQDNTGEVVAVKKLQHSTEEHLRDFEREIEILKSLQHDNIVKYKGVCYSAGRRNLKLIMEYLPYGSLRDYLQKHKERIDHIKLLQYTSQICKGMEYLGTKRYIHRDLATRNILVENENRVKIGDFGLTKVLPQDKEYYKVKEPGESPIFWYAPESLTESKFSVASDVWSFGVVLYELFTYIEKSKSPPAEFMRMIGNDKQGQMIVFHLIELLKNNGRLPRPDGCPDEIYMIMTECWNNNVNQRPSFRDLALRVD
T3 sequence (P52333 822-1111 limits assumed): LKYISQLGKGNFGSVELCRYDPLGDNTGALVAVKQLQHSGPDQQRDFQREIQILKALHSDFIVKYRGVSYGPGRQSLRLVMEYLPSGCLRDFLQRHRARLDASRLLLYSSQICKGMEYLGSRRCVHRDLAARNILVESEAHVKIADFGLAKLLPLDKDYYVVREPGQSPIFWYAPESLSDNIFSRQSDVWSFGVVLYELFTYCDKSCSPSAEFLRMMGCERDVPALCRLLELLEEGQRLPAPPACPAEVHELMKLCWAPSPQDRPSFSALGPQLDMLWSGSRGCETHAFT
fes, sequence (P07332 561-822 limits assumed, species assumed): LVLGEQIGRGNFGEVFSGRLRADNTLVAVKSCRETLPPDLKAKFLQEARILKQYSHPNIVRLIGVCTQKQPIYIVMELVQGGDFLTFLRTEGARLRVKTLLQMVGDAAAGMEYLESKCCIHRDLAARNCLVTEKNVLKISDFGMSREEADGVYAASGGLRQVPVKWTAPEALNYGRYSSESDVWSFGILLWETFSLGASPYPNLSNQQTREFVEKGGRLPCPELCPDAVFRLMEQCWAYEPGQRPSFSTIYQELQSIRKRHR

With `O=C(NCc1ccco1)c1cncc(-c2ccc(O)cc2)c1`, the inhibition (as a rule, the drop in the measured response relative to a control, in per cent) at 10 µM in test [1] was not below 50%; in test [2], less than 50%; in test [3], less than 50%; in test [4], less than 50%; in test [5], less than 50%; in test [6], less than 50%. Besides, the inhibition at 10 µM in test [7] was less than 50%.

On to `COc1ccc(NC(=O)c2cncc(-c3cccnc3)c2)c(OC)c1`, for which the inhibition at 10 µM is not below 50% in test [1]; less than 50% in test [2]; less than 50% in test [3]; not below 50% in test [4]; not below 50% in test [5]; less than 50% in test [6]. Further, the inhibition at 10 µM in test [7] was less than 50%.

For `CN(C)CCNC(=O)c1cncc(-c2ccc(F)cc2)c1`, the inhibition at 10 µM in test [1], in test [2], in test [3], in test [4], in test [5] and in test [6] was less than 50% throughout. Besides, the inhibition at 10 µM in test [7] is less than 50%.

As to `COc1cccc([C@H](C)NC(=O)c2cncc(-c3ccc(F)cc3)c2)c1`, the inhibition at 10 µM is less than 50% in test [1]; less than 50% in test [2]; less than 50% in test [3]; less than 50% in test [4]; less than 50% in test [5]; not below 50% in test [6]. Moreover, in test [7], the inhibition at 10 µM is less than 50%.

For the molecule `COc1cc(CNC(=O)c2cncc(-c3cc(OC)c(OC)c(OC)c3Cl)c2)cc(OC)c1`, the inhibition at 10 µM in test [1] was less than 50%; in test [2], less than 50%; in test [3], less than 50%; in test [4], less than 50%; in test [5], not below 50%; in test [6], not below 50%. In test [7], the inhibition at 10 µM is less than 50%.

For the molecule `COc1cc(CNC(=O)c2cncc(-c3cccc(OC)c3)c2)cc(OC)c1`, the inhibition at 10 µM in test [1] was less than 50%; in test [2], less than 50%; in test [3] it was less than 50%; in test [4], less than 50%; in test [5], less than 50%; in test [6], not below 50%. Besides, the inhibition at 10 µM in test [7] was less than 50%.

Regarding `COc1cccc(-c2cncc(C(=O)NCc3ccco3)c2)c1`, the inhibition at 10 µM in test [1] is less than 50%; in test [2] it was less than 50%; in test [3] it was less than 50%; in test [4], less than 50%; in test [5], less than 50%; in test [6], not below 50%. In addition, the inhibition at 10 µM in test [7] was less than 50%.

`COc1ccc(CNC(=O)c2cncc(-c3cccc(OC)c3)c2)cc1`: the inhibition at 10 µM was less than 50% in test [1]; less than 50% in test [2]; less than 50% in test [3]; less than 50% in test [4]; less than 50% in test [5]; not below 50% in test [6]. The inhibition at 10 µM in test [7] was less than 50%.

Regarding `COc1cccc(-c2cncc(C(=O)NCc3ccc(C)cc3)c2)c1`, the inhibition at 10 µM in test [1] is less than 50%; in test [2], less than 50%; in test [3], less than 50%; in test [4], less than 50%; in test [5], less than 50%; in test [6], not below 50%. Moreover, the inhibition at 10 µM in test [7] is less than 50%.

`COc1cccc(-c2cncc(C(=O)NCCc3ccccc3)c2)c1`: the inhibition at 10 µM in test [1] is less than 50%; in test [2], less than 50%; in test [3] it was less than 50%; in test [4], less than 50%; in test [5], less than 50%; in test [6], not below 50%. Moreover, the inhibition at 10 µM in test [7] was less than 50%.

On to `COc1cccc(-c2cncc(C(=O)N[C@@H](C)c3cccc(OC)c3)c2)c1`, for which the inhibition at 10 µM is less than 50% in test [1]; less than 50% in test [2]; less than 50% in test [3]; less than 50% in test [4]; less than 50% in test [5]; not below 50% in test [6]. In test [7], the inhibition at 10 µM is less than 50%.
